From patent publication US10336707B2, “Heterocyclic derivatives modulating activity of certain protein kinases” (EUDENDRON S.R.L., priority 2014, dated 2019)
Like-named read-outs stand apart in the source and are kept apart here.

What was measured:
[1] = biological target: T1, BaF3 cell line transfected with the oncogenic fusion protein NPM-ALK and expressing the mutation L1196M (Homo sapiens, UniProt Q9UM73, L1196M, cells depend on it); assay: Tritiated thymidine uptake cell proliferation assay, BaF3 NPM-ALK L1196M; assay type: cell-based, murine; settings: for GI50: averaged IC50 values of cell proliferation inhibition, class letters, read-out: IC50 BaF3 NPM-ALK L1196M cells; for % Inhibition BaF3 NPM-ALK L1196M cells: percentage of inhibition of cell proliferation at 200 nM
T1 construct: fused on or other part: P06748 (Nucleophosmin)
Protocol: (§1) Method: Tritiated Thymidine Uptake Cell Proliferation Assay
(§2) The following procedure was used with parent untransformed BaF3 cells, BaF3 cells transformed with the oncogenic fusion protein NPM/ALK, NPM/ALK positive SUDHL-1 cells, NPM/ALK positive SUPM2, ALK-negative HL60 cells, NPM/ALK positive KARPAS-299 cells. The parent untransformed BaF3 cells or Alk-negative HL60 cells are used as controls. Cells were seeded in U-bottomed 96-well plates at 10000 cells/well in a volume of 100 μl in supplemented medium. In the case of the parent untransformed BaF3 cells, the medium was supplemented with IL-3. Serial dilutions of inhibitors were added to the appropriate wells and volumes adjusted to 200 μl. Controls were treated with the equivalent volume of vehicle, DMSO, alone. Plates were incubated at 37° C. for 72 h. 3[H]-thymidine (1 μCi/well) was added for the last 16 h of incubation. Cells were harvested on to paper filters and 3[H]-thymidine incorporation was measured using a scintillation counter (1430 MicroBeta, Wallac, Turku, Finland). The 50% inhibitory concentration (IC50) was defined as the concentration of inhibitor, expressed in nanomolar units, that gave a 50% decrease in 3[H]-thymidine uptake compared with controls.
In Table 2 are listed results for selected examples of compounds of the invention, reported as percentage of inhibition of cell proliferation at 200 nM, obtained from cellular assays in BaF3 cell line transfected with the oncogenic fusion protein NPM-ALK and expressing the mutation L1196M.
In Table 3 are listed averaged IC50 values of cell proliferation inhibition for selected examples of compounds of the present invention, obtained from cellular assays in BaF3 cell line transfected with the oncogenic fusion protein NPM-ALK and expressing the mutation L1196M. The letter “A” designates an IC50 value between 1 nM and 50 nM, the letter “B” designates an IC50 value between 50 nM and 100 nM, the letter “C” designates an IC50 value between 100 and 500 nM.

[2] = system: Karpas 299 lymphoma cell line positive for the oncogenic fusion protein NPM-ALK; assay: Tritiated thymidine uptake cell proliferation assay, Karpas 299; assay type: cell-based; settings: Homo sapiens
Protocol: as §1, §2
In Table 1 are listed results for selected examples of compounds of the invention, reported as percentage of inhibition of cell proliferation at 200 nM, obtained from cellular assays in Karpas 299 lymphoma cell line positive for the oncogenic fusion protein NPM-ALK.

[3] = KARPAS-299, percentage of inhibition of cell proliferation at 200 nM, read-out: % Inhibition Karpas 299 cells
[4] = KARPAS-299, read-out: % Inhibition Karpas 299 cells

T1 sequence (Q9UM73 whole entry L1196M, the tested form may be a part): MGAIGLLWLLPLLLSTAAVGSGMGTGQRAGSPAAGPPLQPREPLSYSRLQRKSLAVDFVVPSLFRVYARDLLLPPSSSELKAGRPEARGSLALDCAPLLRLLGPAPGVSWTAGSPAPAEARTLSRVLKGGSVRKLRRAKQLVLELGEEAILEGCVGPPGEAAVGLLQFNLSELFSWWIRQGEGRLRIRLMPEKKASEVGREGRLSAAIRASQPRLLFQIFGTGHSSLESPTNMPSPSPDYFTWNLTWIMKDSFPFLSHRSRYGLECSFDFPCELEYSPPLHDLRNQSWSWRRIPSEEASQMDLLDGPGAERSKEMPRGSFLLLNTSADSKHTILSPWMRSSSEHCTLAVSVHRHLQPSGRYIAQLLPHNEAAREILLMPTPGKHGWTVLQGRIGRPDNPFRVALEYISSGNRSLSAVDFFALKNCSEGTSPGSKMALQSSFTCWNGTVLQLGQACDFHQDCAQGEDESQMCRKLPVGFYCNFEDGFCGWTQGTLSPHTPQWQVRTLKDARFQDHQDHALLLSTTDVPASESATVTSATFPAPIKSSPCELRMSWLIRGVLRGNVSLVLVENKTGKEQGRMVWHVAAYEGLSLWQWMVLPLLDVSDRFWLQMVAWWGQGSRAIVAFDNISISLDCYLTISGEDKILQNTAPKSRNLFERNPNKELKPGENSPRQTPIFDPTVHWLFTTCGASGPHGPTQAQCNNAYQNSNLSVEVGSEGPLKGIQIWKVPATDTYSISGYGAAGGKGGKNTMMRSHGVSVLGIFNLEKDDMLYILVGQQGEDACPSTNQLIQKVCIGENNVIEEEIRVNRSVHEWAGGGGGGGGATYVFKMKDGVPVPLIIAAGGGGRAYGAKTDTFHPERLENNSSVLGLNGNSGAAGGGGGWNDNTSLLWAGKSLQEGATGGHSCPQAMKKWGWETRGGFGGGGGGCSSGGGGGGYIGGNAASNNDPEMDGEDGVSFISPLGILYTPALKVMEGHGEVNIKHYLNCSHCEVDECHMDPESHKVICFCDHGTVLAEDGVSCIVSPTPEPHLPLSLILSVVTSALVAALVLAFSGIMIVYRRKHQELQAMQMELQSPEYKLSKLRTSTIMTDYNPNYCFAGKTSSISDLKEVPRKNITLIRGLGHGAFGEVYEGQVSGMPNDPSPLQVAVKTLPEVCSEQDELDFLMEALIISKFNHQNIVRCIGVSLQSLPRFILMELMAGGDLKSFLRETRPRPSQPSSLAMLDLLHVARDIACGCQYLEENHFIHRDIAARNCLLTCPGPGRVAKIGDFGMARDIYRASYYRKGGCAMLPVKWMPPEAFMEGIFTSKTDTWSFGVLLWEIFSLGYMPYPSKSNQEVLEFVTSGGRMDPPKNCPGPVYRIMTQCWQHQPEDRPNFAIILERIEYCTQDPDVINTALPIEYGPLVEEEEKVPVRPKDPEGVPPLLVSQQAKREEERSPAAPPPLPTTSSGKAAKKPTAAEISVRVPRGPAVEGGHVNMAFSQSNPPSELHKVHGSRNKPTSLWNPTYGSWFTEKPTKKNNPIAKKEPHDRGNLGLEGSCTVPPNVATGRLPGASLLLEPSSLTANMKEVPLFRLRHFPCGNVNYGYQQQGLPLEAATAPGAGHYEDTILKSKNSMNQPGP

Row | SMILES | GI50 [1] | % Inhibition BaF3 NPM-ALK L1196M cells [1] | inhibition at 0.2 µM [2, 3] | inhibition at 0.2 µM [2, 4]
1 | CN1CCN(c2ccc(C(=O)Nc3n[nH]c4cc(-c5cc(O)cc(F)c5)c(Cc5cc(F)cc(F)c5)cc34)c(NC3CCOCC3)c2)CC1 [Example 19, N-[5-[(3,5-difluorophenyl)methyl]-6-(3-fluoro-5-hydroxy-phenyl)-1H-indazol-3-yl]-4-(4-methylpiperazin-1-yl)-2-(tetrahydropyran-4-ylamino)benzamide] | 50 to 100 nM | 100% | 99% | 
2 | CN1CCN(c2ccc(C(=O)Nc3n[nH]c4cc(-c5ccccc5)c(Cc5cc(F)cc(F)c5)cc34)c(NC3CCOCC3)c2)CC1 [Example 23, N-[5-[(3,5-difluorophenyl)methyl]-6-phenyl-1H-indazol-3-yl]-4-(4-methylpiperazin-1-yl)-2-(tetrahydropyran-4-ylamino)benzamide] |  | 61% | 71% | 
3 | CN1CCN(c2ccc(C(=O)Nc3n[nH]c4cc(-c5cncnc5)c(Cc5cc(F)cc(F)c5)cc34)c(NC3CCOCC3)c2)CC1 [Example 27, N-[5-[(3,5-difluorophenyl)methyl]-6-(pyrimidin-5-yl)-1H-indazol-3-yl]-4-(4-methylpiperazin-1-yl)-2-(tetrahydropyran-4-ylamino)benzamide] |  | 62% | 87% | 
4 | CN1CCN(c2ccc(C(=O)Nc3n[nH]c4cc(-c5ccc6c(c5)C(=O)NC6)c(Cc5cc(F)cc(F)c5)cc34)c(NC3CCOCC3)c2)CC1 [Example 28, N-[5-[(3,5-difluorophenyl)methyl]-6-(3-oxoisoindolin-5-yl)-1H-indazol-3-yl]-4-(4-methylpiperazin-1-yl)-2-(tetrahydropyran-4-ylamino)benzamide] |  | 60% | 55% | 
5 | CN1CCN(c2ccc(C(=O)Nc3n[nH]c4cc(-c5ccc(O)cc5)c(Cc5cc(F)cc(F)c5)cc34)cc2)CC1 [Example 33, N-[5-[(3,5-difluorophenyl)methyl]-6-(4-hydroxyphenyl)-1H-indazol-3-yl]-4-(4-methylpiperazin-1-yl)benzamide] | 1 to 50 nM | 99% |  | 100%
6 | Cc1cc(O)ccc1-c1cc2[nH]nc(NC(=O)c3ccc(N4CCN(C)CC4)cc3)c2cc1Cc1cc(F)cc(F)c1 [Example 34, N-[5-[(3,5-difluorophenyl)methyl]-6-(4-hydroxy-2-methyl-phenyl)-1H-indazol-3-yl]-4-(4-methylpiperazin-1-yl)benzamide] | 1 to 50 nM | 100% | 100% | 
7 | CN1CCN(c2ccc(C(=O)Nc3n[nH]c4cc(-c5ccc6[nH]ncc6c5)c(Cc5cc(F)cc(F)c5)cc34)cc2)CC1 [Example 35, N-[5-[(3,5-difluorophenyl)methyl]-6-(1H-indazol-5-yl)-1H-indazol-3-yl]-4-(4-methylpiperazin-1-yl)benzamide] | 50 to 100 nM | 96% | 100% | 
8 | CN1CCN(c2ccc(C(=O)Nc3n[nH]c4cc(-c5ccc(O)cc5)c(Cc5cccc(F)c5)cc34)c(NC3CCOCC3)c2)CC1 [Example 38, N-[5-[(3-fluorophenyl)methyl]-6-(4-hydroxyphenyl)-1H-indazol-3-yl]-4-(4-methylpiperazin-1-yl)-2-(tetrahydropyran-4-ylamino)benzamide] | 1 to 50 nM | 100% |  | 100%
9 | COCCNc1cc(N2CCN(C)CC2)ccc1C(=O)Nc1n[nH]c2cc(-c3ccc(O)c(F)c3)c(Cc3cccc(F)c3)cc12 [Example 42, N-[6-(3-fluoro-4-hydroxy-phenyl)-5-[(3-fluorophenyl)methyl]-1H-indazol-3-yl]-2-(2-methoxyethylamino)-4-(4-methylpiperazin-1-yl)benzamide] | 50 to 100 nM | 93% |  | 100%

The next lines start with results.

Row | GI50 [1] | % Inhibition BaF3 NPM-ALK L1196M cells [1] | SMILES | inhibition at 0.2 µM [2, 3] | inhibition at 0.2 µM [2, 4]
10 | 1 to 50 nM | 99% | Cc1cc(-c2cc3[nH]nc(NC(=O)c4ccc(N5CCN(C)CC5)cc4NC4CCOCC4)c3cc2Cc2cc(F)cc(F)c2)ccc1O [Example 21, N-[5-[(3,5-difluorophenyl)methyl]-6-(4-hydroxy-3-methyl-phenyl)-1H-indazol-3-yl]-4-(4-methylpiperazin-1-yl)-2-(tetrahydropyran-4-ylamino)benzamide] | 100% | 
11 | 1 to 50 nM | 100% | CN1CCN(c2ccc(C(=O)Nc3n[nH]c4cc(-c5ccc(O)c(F)c5)c(Cc5cc(F)cc(F)c5)cc34)c(NC3CCOCC3)c2)CC1 [Example 25, N-[5-[(3,5-difluorophenyl)methyl]-6-(3-fluoro-4-hydroxy-phenyl)-1H-indazol-3-yl]-4-(4-methylpiperazin-1-yl)-2-(tetrahydropyran-4-ylamino)benzamide] | 100% | 
12 | 1 to 50 nM | 99% | CN1CCN(c2ccc(C(=O)Nc3n[nH]c4cc(-c5ccc6[nH]ncc6c5)c(Cc5cc(F)cc(F)c5)cc34)c(NC3CCOCC3)c2)CC1 [Example 26, N-[5-[(3,5-difluorophenyl)methyl]-6-(1H-indazol-5-yl)-1H-indazol-3-yl]-4-(4-methylpiperazin-1-yl)-2-(tetrahydropyran-4-ylamino)benzamide] | 99% | 
13 | 50 to 100 nM | 98% | CN1CCN(c2ccc(C(=O)Nc3n[nH]c4cc(-c5cnc6[nH]ccc6c5)c(Cc5cc(F)cc(F)c5)cc34)c(NC3CCOCC3)c2)CC1 [Example 29, N-[5-[(3,5-difluorophenyl)methyl]-6-(1H-pyrrolo[2,3-b]pyridin-5-yl)-1H-indazol-3-yl]-4-(4-methylpiperazin-1-yl)-2-(tetrahydropyran-4-ylamino)benzamide] | 100% | 
